Measurements: paper PMC8395690, “Entropy–Entropy Compensation between the Protein, Ligand, and Solvent Degrees of Freedom Fine-Tunes Affinity in Ligand Binding to Galectin-3C” (JACS Au, 2021)
Like-named read-outs stand apart in the source and are kept apart here.

Molecular target: T1, galectin-3C (carbohydrate recognition domain of galectin-3) (Homo sapiens, UniProt P17931)
T1 construct: gene LGALS3; carbohydrate recognition domain of galectin-3 (residues 113–250)
Assay: ITC; X-ray crystal structure; NMR titration
Format: binding

T1 sequence (P17931 113-250): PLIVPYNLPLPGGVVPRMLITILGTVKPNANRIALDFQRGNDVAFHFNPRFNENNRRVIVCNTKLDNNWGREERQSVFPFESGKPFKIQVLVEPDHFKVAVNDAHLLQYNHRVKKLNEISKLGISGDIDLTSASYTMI

SMILES: OC[C@H]1O[C@@H](S[C@@H]2O[C@H](CO)[C@@H](O)[C@H](O)[C@H]2O)[C@H](O)[C@@H](n2cc(-c3ccc(F)cc3)nn2)[C@H]1O [P]
- Kd (read-out: Kd ITC (10^-6 M) ^a): 2.46 µM

SMILES: OC[C@H]1O[C@@H](S[C@@H]2O[C@H](CO)[C@@H](O)[C@H](O)[C@H]2O)[C@H](O)[C@@H](n2cc(-c3ccccc3F)nn2)[C@H]1O [O]
- Kd: 7.21 µM

SMILES: OC[C@H]1O[C@@H](S[C@@H]2O[C@H](CO)[C@@H](O)[C@H](O)[C@H]2O)[C@H](O)[C@@H](n2cc(-c3cccc(F)c3)nn2)[C@H]1O [M]
- Kd (read-out: Kd ITC (10^-6 M) ^a): 2 µM
